In ChEMBL document CHEMBL3352781, “Synthesis, antileishmanial and antitrypanosomal activities of N-substituted tetrahydro-β-carbolines” (Bioorg Med Chem Lett, 2014):
Calls of active or inactive are those of the source. The rule behind the calls is not given here.

Experiments:
[1] = tested on: Leishmania infantum; assay: Antimicrobial activity against promastigote stage of Leishmania infantum; format: functional, organism-based
[2] = tested on: Leishmania infantum; assay: Antimicrobial activity against amastigote stage of Leishmania infantum; format: functional, organism-based
[3] = tested on: Trypanosoma brucei; assay: Antimicrobial activity against trypamastigote stage of Trypanosoma brucei after 72 hrs by Alamar Blue assay; format: functional, organism-based
[4] = tested on: Leishmania donovani; assay: Antimicrobial activity against axenic amastigote stage of Leishmania donovani after 72 hrs by Alamar Blue assay; format: functional, organism-based; conditions: Leishmania donovani, 72 h; for IC50: read-out: IC50
[5] = tested on: Trypanosoma brucei brucei; assay: Antimicrobial activity against bloodstream form of Trypanosoma brucei brucei TC221; format: functional, organism-based
[6] = tested on: Leishmania donovani; assay: Antimicrobial activity against promastigote stage of Leishmania donovani after 72 hrs by Alamar Blue assay; format: functional, organism-based; conditions: Leishmania donovani, 72 h; for IC50: read-out: IC50
[7] = tested on: THP-1; assay: Cytotoxicity against human THP1 cells up to 10 ug/ml after 48 hrs by neutral red assay; format: cell-based; conditions: thp-1, 48 h
[8] = tested on: LLC-PK1; assay: Cytotoxicity against pig LLC-PK1 cells after 48 hrs by neutral red assay; format: cell-based; conditions: Sus scrofa, LLC-PK1, 48 h
[9] = tested on: HepG2; assay: Cytotoxicity against human HepG2 cells after 48 hrs by neutral red assay; format: cell-based; conditions: HepG2, 48 h
[10] = tested on: Leishmania donovani; assay: Antimicrobial activity against promastigote stage of Leishmania donovani infected in human THP1 cells after 72 hrs by Alamar Blue assay; format: functional, organism-based

IC50 [3]	IC90 [3]	SMILES	IC50 [1]	IC50 [2]	IC50 ([3]; Trypanosoma brucei, 72 h, read-out: IC50)	IC50 [4]	IC50 [5]	IC50 [6]	Activity [7]	IC50 [8]	IC90 [4]	IC50 [9]	IC90 [6]	IC90 ([10]; THP-1)	IC50 ([10]; thp-1)
–	–	COc1ccc2c(c1)[nH]c1c(C)nccc12 [HARMINE]	3.7 µM	0.23 µM	74 µM	0.23 µM	74 µM	3.7 µM	–	–	–	–	–	–	–
Not Active	inactive	O=C(c1ccc([N+](=O)[O-])s1)N1CCc2c([nH]c3ccccc23)C1	–	–	–	62.8 µM	–	12.7 µM	Non-toxic	56 µM	107 µM	63.6 µM	36.6 µM	inactive	Not Active
